The source of these data is patent US11607417B2, “Uses of celastrol in preventing and/or treating cholestatic liver disease and liver fibrosis” (KUNMING INSTITUTE OF BOTANY, THE CHINESE ACADEMY OF SCIENCES, priority 2017, dated 2023).

The structures appear in SMILES notation. Several values for one entry are separate records, joined by “and”; a condition that tells them apart may be missing. Equal values may be shown once.

Assay [1] relates to ANIT-induced cholestatic liver injury. The assay is described as follows: ANIT-induced mouse cholestatic liver injury (Example 1). Format: in vivo, C57BL/6 mice. How it is done:
A total of 18 male C57BL/6 mice were divided into three groups: blank group (n=6); model group (n=6); treatment group (n=6).
Celastrol was dissolved in a solvent to obtain a celastrol solution at a concentration of 2 mg/mL, wherein the solvent consisted of 1% DMSO, 2% Tween 80, and 97% water (v:v:v). For intragastrical administration, the dosage of celastrol was 10 mg/kg·d. ANIT was dissolved in corn oil to obtain a corn oil solution of ANIT at a concentration of 15 mg/mL, and the dosage of ANIT for intragastrical administration was 75 mg/kg.
The treatment group was intragastrically administered with the celastrol solution at a dosage of 10 mg/kg·d for five consecutive days. At the same time, the blank group and the model group were intragastrically administered with the same dosage of a solvent, wherein the solvent consisted of 1% DMSO, 2% Tween 80 and 97% water (v:v:v), and the solvent was administrated for five consecutive days.
On the third day of administration, ANIT model was established. 4 Hours after administration with the solvent or celastrol solution, the model group and the treatment group were respectively intragastrically administered with the ANIT corn oil solution to induce cholestatic liver injury at a dosage of 75 mg/kg for single administration, and the blank group was fed with an equal dosage of corn oil. After the model was established, the treatment group was continuously administrated with the celastrol solution, and the blank group and the model group was continuously administrated with the same dosage of solvent.
48 Hours after the model was established, the mice were sacrificed by CO2 anesthesia, and mouse livers and plasma samples were taken. The eyeballs of the mice were taken for blood collection. The plasma samples were placed on ice for 1-2 hours, centrifuged at 4000 g for 5 minutes at 4° C., and the supernatant was taken to determine the plasma biochemical indicators, the levels of ALT, AST and ALP.
At the same time, plasma samples were prepared: 10 μL of plasma sample was taken, mixed with 190 μL of 67% (v/v) acetonitrile (containing 5 μM internal standard chlorpropamide), centrifuged at 18000 g for 20 minutes at 4° C., and the supernatant was taken for sample injection.
Liver samples were prepared: 100 mg of liver samples were mixed well with 1 mL of 50% (v/v) acetonitrile (containing 5 μM internal standard chlorpropamide), shaken for 20 minutes at room temperature, and then centrifuged at 18000 g for 20 minutes at 4° C. Thereafter, 200 μL of the supernatant was taken and added with 200 μL of pure acetonitrile, vortexed for 1 minute, centrifuged at 18000 g for 20 minutes at 4° C., and the supernatant was taken for sample injection.
The liquid chromatography conditions were as follows: the injection volume was 5 μL; the column temperature was 45° C.; the flow rate of mobile phase was 0.3 mL/min; the gradient elution was that acetonitrile concentration changed from 2% to 98% during 16 minutes of operation, wherein the mobile phase (water/acetonitrile solution) contained 0.01% formic acid. The elution procedure was as follows: during 0-12th minute, the acetonitrile concentration changed from 2% to 98% at a constant rate; during 12-14th minute, the acetonitrile concentration was maintained at 98%; during 14-14.1th minute, the acetonitrile concentration changed from 98% to 2%; during 14.1-16th minute, the acetonitrile concentration was maintained at 2%. Mass spectrometry conditions were as follows: the temperature of dry gas was 350° C., the pressure of nebulizer was 35 psi, and the voltage of capillary was 3.5 kV.
Part of the collected mouse liver tissue was fixed overnight in formalin and tissue sections were stained with hematoxylin and eosin (H&E).

Assay [2] relates to TAA-induced cholestatic liver injury under SIRT1 inhibition. The assay is described as follows: Effect of SIRT1 inhibition (EX527) on celastrol activity in TAA model (Example 4). It is filed as in vivo, C57BL/6 mice. How it is done: A total of 24 male C57BL/6 mice were divided into four groups: blank group (n=6);
model group (n=6); treatment group (n=6); EX527 group (n=6).
Celastrol was dissolved in a solvent to obtain a solution of celastrol at a concentration of 2 mg/mL, wherein the solvent consisted of 1% DMSO, 2% Tween, and 97% water (v:v:v). For intragastrical administration, the dosage of celastrol was 10 mg/kg·d. TAA was dissolved in 0.9% NaCl solution to prepare a NaCl solution of TAA at a concentration of 60 mg/mL, and the dosage of TAA for intraperitoneal administration was 300 mg/kg. EX527 was dissolved in corn oil to prepare a corn oil solution of EX527 at a concentration of 2 mg/mL, and the dosage of EX527 for intraperitoneal administration was 10 mg/kg. d.
The EX527 group was simultaneously administered with the celastrol solution and the EX527 corn oil solution for 4 consecutive days. The treatment group was administrated with the celastrol solution and an equal dosage of corn oil for 4 consecutive days. At the same time, the blank group and the model group were administrated with equal dosages of solvent (1% DMSO, 2% Tween 80 and 97% water (v:v:v)) and corn oil, and the solvent was administrated for 4 consecutive days.
On the 4th day, the establishment of TAA model was performed. 1 Hour after administration, the mice in the model group, the treatment group and the EX527 group were intraperitoneally injected with TAA at a dosage of 300 mg/kg to induce cholestatic liver injury. 24 Hours after administration with TAA, the mice were sacrificed by CO2 anesthesia, and plasma samples and liver samples were collected. The eyeballs of the mice were taken for blood collection. The plasma samples were placed on ice for 1-2 hours, centrifuged at 4000 g for 5 minutes at 4° C., and the supernatants of plasma samples were taken to determine the plasma biochemical indicators, the levels of ALT, AST, and ALP.
At the same time, plasma samples were prepared: 10 μL of plasma sample was mixed with 190 μL of 67% acetonitrile (containing 5 μM internal standard chlorpropamide), centrifuged at 18000 g for 20 minutes at 4° C., and the supernatant was taken for sample injection. The liquid chromatography conditions were as follows: the volume of injection was 5 μL; the temperature of column was 45° C.; the flow rate of mobile phase was 0.3 mL/min; the gradient elution was that acetonitrile concentration changed from 2% to 98% during 16 minutes of operation, wherein the mobile phase (water/acetonitrile solution) contained 0.01% formic acid. The elution procedure was as follows: during 0-12th minute, the acetonitrile concentration changed from 2% to 98% at a constant rate; during 12-14th minute, the acetonitrile concentration was maintained at 98%; during 14-14.1th minute, the acetonitrile concentration changed from 98% to 2%; during 14.1-16th minute, the acetonitrile concentration was maintained at 2%. Mass spectrometry conditions were as follows: the temperature of dry gas was 350° C., the pressure of nebulizer was 35 psi, and the voltage of capillary was 3.5 kV.
Part of the collected mouse liver tissue was fixed overnight in formalin, and tissue sections were stained with hematoxylin and eosin (H&E).

[3] abbreviates: celastrol 10 mg/kg·d intragastric 5 days, ANIT 75 mg/kg on day 3, 48 h after ANIT, n=6.
Setting [4] is: celastrol 10 mg/kg·d intragastric 5 days, ANIT 75 mg/kg, 48 h after ANIT, n=6.
[5] abbreviates: treatment group: celastrol 10 mg/kg·d, TAA model, P<0.05, FIG. 4E.

In the case of `CC1=C(O)C(=O)C=C2C1=CC=C1[C@@]2(C)CC[C@@]2(C)[C@@H]3C[C@](C)(C(=O)O)CC[C@]3(C)CC[C@]12C` [celastrol, Celastrol], the “Levels of bile acids in plasma vs ANIT model group” value in assay [1] (CA, DCA, TβMCA/TαMCA, TCA, THDCA/TUDCA, celastrol 10 mg/kg·d, FIG. 1D) is recorded as “significantly lower”. Also, in assay [1] (setting [3]), the “Liver weight of mouse when sacrificed” value is 1.01 g and 1.01 ± 0.05 g; the Liver weight/body weight is 4.66% and 4.66 ± 0.23 %. In addition, in assay [1] (setting [4]), the “ALP in mouse plasma” value was 27.3 ± 3.7 U/l, the “ALT in mouse plasma” value was 54.0 ± 36.4 U/l and the “AST in mouse plasma” value is given as 72.0 ± 34.4 U/l. Further, the “H&E staining of mouse liver tissue” value in assay [1] (celastrol 10 mg/kg·d intragastric, ANIT model, FIG. 1C) is on record as “no obvious damage”. Besides, the “Levels of bile acids in liver vs ANIT model group” value in assay [1] (ω-MCA, β-MCA, CA, DCA, TβMCA/TαMCA, TCA, GCA, TLCA, celastrol 10 mg/kg·d, FIG. 1E) is reported as “significantly lower”. Besides, the “H&E staining: area of necrosis of liver cells” value in assay [2] (treatment group: celastrol 10 mg/kg·d intragastric + corn oil, TAA model, FIG. 4C) is given as “significantly reduced”. In addition, in assay [2] (setting [5]), the “ALT level in plasma vs model group” value is “lower” and the “AST level in plasma vs model group” value is reported as “lower”. Besides, in assay [2] (ω-MCA, DCA, TβMCA/TαMCA, TCA, THDCA/TUDCA, TCDCA, TDCA, treatment group: celastrol 10 mg/kg·d, P<0.05, FIG. 4F), the “Levels of bile acids in plasma vs TAA model group” value is given as “significantly lower”.
